In article PMC8345219 (Cancers, 2021):
“Also recorded” adds a separate entry of the source. *1 amine or outer side, *2 acyl side, *3 side chain or, on linkers, in order; H or OH if unused. Where a SMILES comes first, the peptide text is derived from it. Bridges are numbered along the chain shown (N, C = ends). Primed or numbered codes have the meaning given here. Where no end group is shown, it is not given here. [ ]: non-standard residue; d: D form. The star is where a group is joined. Tam = 6-carboxy tetramethylrhodamine, CN(C)c1ccc2c(-c3cc(C(=O)*)ccc3C(=O)[O-])c3ccc(N(C)C)cc3[o+]c2c1; X1 = CN(C)c1ccc2c(c1)Oc1cc(N(C)C)ccc1C21OC(=O)c2ccc(C(=O)*)cc21; EG(4) = polyethylene glycol with four ethylene glycol units; PEG4 = NCCOCCOCCOCCOCCC(=O)O; d(hCys) = N[C@H](CCS)C(=O)O; hCys = N[C@@H](CCS)C(=O)O; CH2 = C([*:1])[*:2]

Legend:
[1] = Investigation of plasma stability (Tam-labeled peptides, RP-HPLC); assay type: in vitro ADME; conditions: Tam-modified peptides, 10^−5 M in human blood plasma, 37 °C; one-phase decay
Experimental: Investigation of peptide stability in blood plasma was carried out as described previously [22]. Tam-labeled peptides were dissolved in human blood plasma at a concentration of 10^−5 M and incubated at 37 °C and 250 rpm. Samples taken at the respective time points were added to a solution of 0.1% SDS in ACN/EtOH (1:1). After incubation at −20 °C for 20 min, the supernatant was transferred to a new tube and incubated again at −20 °C for at least 3 h. […] Peaks were integrated, and the peak containing the intact peptide was normalized to the sample taken at t = 0 min (100%). Plasma half-life was determined using one-phase decay in Prism 5 (GraphPad, San Diego, CA, USA).

hCMKLR1 = biological target: T1, hCMKLR1 (Homo sapiens, UniProt Q99788); assay: Calcium flux assay in COS-7 cells transfected with hCMKLR1_eYFP_GαΔ6qi4myr
T1 sequence (Q99788 1-373): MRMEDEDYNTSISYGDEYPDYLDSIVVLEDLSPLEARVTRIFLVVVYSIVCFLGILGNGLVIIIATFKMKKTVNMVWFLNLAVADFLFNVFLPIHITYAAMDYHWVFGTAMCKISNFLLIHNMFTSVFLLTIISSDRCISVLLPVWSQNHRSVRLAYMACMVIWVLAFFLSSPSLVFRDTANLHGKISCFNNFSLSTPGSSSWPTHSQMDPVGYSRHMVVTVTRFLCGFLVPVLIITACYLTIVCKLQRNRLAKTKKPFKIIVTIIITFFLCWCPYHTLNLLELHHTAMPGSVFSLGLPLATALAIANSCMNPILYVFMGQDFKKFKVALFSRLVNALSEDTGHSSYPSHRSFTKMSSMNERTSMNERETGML
Experimental: COS-7 cells were transfected in 75 cm^2 cell culture flasks with 12 µg of the hCMKLR1_eYFP_GαΔ6qi4myr_pV2 plasmid overnight using Metafectene Pro. Transfected cells were seeded in 96 well plates (100 µL cell suspension in DMEM + 10%FBS/well) and incubated overnight. […] All experiments were performed in triplicates, each experiment was repeated at least twice. Nonlinear regression was calculated using GraphPad Prism 5.

[2] = test system: HEK293 cells transiently transfected with CMKLR1-eYFP; assay: Live cell fluorescence microscopy of peptide uptake; assay type: cell-based; conditions: 1 µM Tam-labeled peptide, 60 min
Experimental: For fluorescence microscopy, HEK293 cells were seeded into Ibidi 15 µ-slides (140,000 cells/200 µL/well) coated with poly D-lysine and grown overnight. Next, cells were transfected with 900 ng CMKLR1-eYFP. Transfection was achieved using Lipofectamine 2000 according to the manufacturer’s protocol. One day post-transfection, fluorescence microscopy experiments were performed on an AxioVision Observer.Z1 microscope equipped with an ApoTome imaging system (Zeiss, Jena, Germany). […] To observe peptide uptake, cells were stimulated with 1 µM Tam-chemerin-9 in OptiMEM, which was replaced with acidic wash (50 mM glycine, 100 mM NaCl, pH 3) in HBSS after the indicated time, followed by two washing steps with OptiMEM. Microscopy was carried out in OptiMEM.

[3] = test system: HEK293 cells stably transfected with CMKLR1-eYFP; assay: Quantification of peptide uptake using a High Content Imager; assay type: cell-based; conditions: 1 µM Tam-labeled peptide, up to 1 h
Experimental: Cells were stimulated with 1 µM of the respective, Tam-labeled peptide for the specified periods, followed by washing with acidic wash (50 mM glycine, 100 mM NaCl, pH 3) in HBSS. Microscopy was carried out in OptiMEM using an ImageXpress Micro Confocal High-Content Imaging System (Molecular Devices, San José, CA, USA), using the appropriate filters for the respective fluorophores (Table 1). The fluorescence intensity per cell was automatically analyzed for each well by a module detecting the nuclei (5–30 µm in diameter and 100 gray levels above background) and the granules by Tam-peptide fluorescence (2–5 µm in diameter, 70 gray levels above background).

[4] = test system: untransfected HEK293 cells; assay: Resazurin-based cell viability assay, untransfected HEK293; conditions: HEK293 cells devoid of CMKLR1, 72 h
Experimental: (§1) HEK293 cells stably transfected with CMKLR1-eYFP, empty HEK293 cells (15,000 cells in 100 µL suspension/well), or HMEC-1 cells (5000 cells in 100 µL suspension/well) in their respective cell culture media were seeded in 96 well plates (coated with poly D-lysine for HEK cells) and incubated at standard conditions overnight. Afterward, cells were incubated with peptides or MTX dissolved in cell culture media, and a medium without peptides was used as a control. […] Ethanol or media was removed and a 50 µL resazurin-based in vitro toxicology assay kit (Sigma-Aldrich, St. Lous, MO, USA) in cell culture media (1:10) was added to each well. After 1 h incubation time, the conversion of the resazurin was detected by measuring the fluorescence intensity at λem = 590 nm. All experiments were performed in duplicates and each experiment was repeated at least three times. Nonlinear regression was calculated using GraphPad Prism 5, curves were normalized to untreated and ethanol-treated cells.

[5] = test system: HEK293 cells stably transfected with CMKLR1-eYFP; assay: Resazurin-based cell viability assay, HEK293-CMKLR1; conditions: HEK293-CMKLR1
Experimental: as §1

human blood plasma = conditions: 37 °C, up to 24 h
[6] = biological target: chemokine-like receptor 1 fused to eYFP (hCMKLR1-eYFP) (human) (UniProt Q99788)
[7] = biological target: chemokine-like receptor 1 fused to eYFP (hCMKLR1-eYFP) (human) (UniProt Q99788); remark: listed apart in the source
[8] = EC50, Ca^2+ flux, normalized to chemerin-9 curve

CN(C)c1ccc2c(c1)Oc1cc(N(C)C)ccc1C21OC(=O)c2ccc(C(=O)N[C@@H](Cc3ccc(O)cc3)C(=O)N[C@@H](Cc3ccccc3)C(=O)N3CCC[C@H]3C(=O)N[C@@H]3CSSC[C@@H](C(=O)N[C@@H](Cc4ccccc4)C(=O)N[C@@H](CO)C(=O)O)NC(=O)[C@H](Cc4ccccc4)NC(=O)[C@H](CCC(N)=O)NC3=O)cc21 [Compound 2T, Tam-YFP(cQFCFS)] (X1-YFP[dC]QFCFS-OH; disulfide 4-7)
half-life [1]: 0.75 h

CN(C)c1ccc2c(c1)Oc1cc(N(C)C)ccc1C21OC(=O)c2ccc(C(=O)N[C@@H](Cc3ccc(O)cc3)C(=O)N[C@@H](Cc3ccccc3)C(=O)N3CCC[C@H]3C(=O)N[C@@H]3CSCSC[C@@H](C(=O)N[C@@H](Cc4ccccc4)C(=O)N[C@@H](CO)C(=O)O)NC(=O)[C@H](Cc4ccccc4)NC(=O)[C@H](CCC(N)=O)NC3=O)cc21 [Compound 3T, Tam-YFP(c(CH2)QFCFS)] (X1-YFP[dC]QFCFS-OH; linker 4-7 via CH2)
half-life [1]: 0.3 h

C[C@@H]1NC(=O)[C@H](Cc2ccccc2)NC(=O)[C@H](CCC(N)=O)NC(=O)[C@H](NC(=O)[C@@H]2CCCN2C(=O)[C@H](Cc2ccccc2)NC(=O)[C@@H](N)Cc2ccc(O)cc2)CSSC[C@@H](C(=O)O)NC(=O)[C@H](Cc2ccccc2)NC1=O [Compound 4, YFP(cQFAFC)] (H-YFP[dC]QFAFC-OH; disulfide 4-9)
EC50 (hCMKLR1; pEC50 ± SEM, Ca^2+ flux): 0.0643 µM

C[C@@H]1NC(=O)[C@H](Cc2ccccc2)NC(=O)[C@H](CCC(N)=O)NC(=O)[C@H](NC(=O)[C@@H]2CCCN2C(=O)[C@H](Cc2ccccc2)NC(=O)[C@H](Cc2ccc(O)cc2)NC(=O)c2ccc3c(c2)C2(OC3=O)c3ccc(N(C)C)cc3Oc3cc(N(C)C)ccc32)CSSC[C@@H](C(=O)O)NC(=O)[C@H](Cc2ccccc2)NC1=O [Compound 4T, Tam-YFP(cQFAFC)] (X1-YFP[dC]QFAFC-OH; disulfide 4-9)
half-life [1]: > 24 h

C[C@@H]1NC(=O)[C@H](Cc2ccccc2)NC(=O)[C@H](CCC(N)=O)NC(=O)[C@H](NC(=O)[C@@H]2CCCN2C(=O)[C@H](Cc2ccccc2)NC(=O)[C@@H](N)Cc2ccc(O)cc2)CSCSC[C@@H](C(=O)O)NC(=O)[C@H](Cc2ccccc2)NC1=O [Compound 5, YFP(c(CH2)QFAFC)] (H-YFP[dC]QFAFC-OH; linker 4-9 via CH2)
EC50 (hCMKLR1; [8]): 0.013 µM
EC50 (hCMKLR1; pEC50 ± SEM, Ca^2+ flux): 0.0129 µM

C[C@@H]1NC(=O)[C@H](Cc2ccccc2)NC(=O)[C@H](CCC(N)=O)NC(=O)[C@H](NC(=O)[C@@H]2CCCN2C(=O)[C@H](Cc2ccccc2)NC(=O)[C@H](Cc2ccc(O)cc2)NC(=O)c2ccc3c(c2)C2(OC3=O)c3ccc(N(C)C)cc3Oc3cc(N(C)C)ccc32)CSCSC[C@@H](C(=O)O)NC(=O)[C@H](Cc2ccccc2)NC1=O [Compound 5T, Tam-YFP(c(CH2)QFAFC)] (X1-YFP[dC]QFAFC-OH; linker 4-9 via CH2)
half-life [1]: > 24 h

C[C@@H]1NC(=O)[C@H](Cc2ccccc2)NC(=O)[C@H](CCC(N)=O)NC(=O)[C@H](NC(=O)[C@@H]2CCCN2C(=O)[C@H](Cc2ccccc2)NC(=O)[C@@H](N)Cc2ccc(O)cc2)CSCSCC[C@@H](C(=O)O)NC(=O)[C@H](Cc2ccccc2)NC1=O [Compound 6, YFP(c(CH2)QFAFX)] (H-YFP[dC]QFAF[hCys]-OH; linker 4-9 via CH2)
EC50 (hCMKLR1; [8]): 0.037 µM
EC50 (hCMKLR1; pEC50 ± SEM, Ca^2+ flux): 0.0372 µM

C[C@@H]1NC(=O)[C@H](Cc2ccccc2)NC(=O)[C@H](CCC(N)=O)NC(=O)[C@H](NC(=O)[C@@H]2CCCN2C(=O)[C@H](Cc2ccccc2)NC(=O)[C@H](Cc2ccc(O)cc2)NC(=O)c2ccc3c(c2)C2(OC3=O)c3ccc(N(C)C)cc3Oc3cc(N(C)C)ccc32)CSCSCC[C@@H](C(=O)O)NC(=O)[C@H](Cc2ccccc2)NC1=O [Compound 6T, Tam-YFP(c(CH2)QFAFX)] (X1-YFP[dC]QFAF[hCys]-OH; linker 4-9 via CH2)
half-life [1]: > 24 h

CN(C)c1ccc2c(c1)Oc1cc(N(C)C)ccc1C21OC(=O)c2ccc(C(=O)NCCCC[C@@H]3NC(=O)[C@H](Cc4ccccc4)NC(=O)[C@H](CCC(N)=O)NC(=O)[C@H](NC(=O)[C@@H]4CCCN4C(=O)[C@H](Cc4ccccc4)NC(=O)[C@@H](N)Cc4ccc(O)cc4)CSSC[C@@H](C(=O)O)NC(=O)[C@H](Cc4ccccc4)NC3=O)cc21 [Compound 7T, YFP(cQFK(Tam)FC)] (H-YFP[dC]QFK(X1)FC-OH; disulfide 4-9)
half-life [1]: < 0.2 h

CN(C)c1ccc2c(c1)Oc1cc(N(C)C)ccc1C21OC(=O)c2ccc(C(=O)NCCCC[C@@H]3NC(=O)[C@H](Cc4ccccc4)NC(=O)[C@H](CCC(N)=O)NC(=O)[C@H](NC(=O)[C@@H]4CCCN4C(=O)[C@H](Cc4ccccc4)NC(=O)[C@H](N)Cc4ccc(O)cc4)CSSC[C@@H](C(=O)O)NC(=O)[C@H](Cc4ccccc4)NC3=O)cc21 [Compound 8T, yFP(cQFK(Tam)FC)] (H-[dY]FP[dC]QFK(X1)FC-OH; disulfide 4-9)
half-life [1]: > 24 h

C[C@@H]1NC(=O)[C@H](Cc2ccccc2)NC(=O)[C@H](CCC(N)=O)NC(=O)[C@H](NC(=O)[C@@H]2CCCN2C(=O)[C@H](Cc2ccccc2)NC(=O)[C@H](N)Cc2ccc(O)cc2)CSCSCC[C@@H](C(=O)O)NC(=O)[C@H](Cc2ccccc2)NC1=O [Compound 10, yFP(c(CH2)QFAFX)] (H-[dY]FP[dC]QFAF[hCys]-OH; linker 4-9 via CH2)
EC50 (hCMKLR1; [8]): 0.028 µM
EC50 (hCMKLR1; pEC50 ± SEM, Ca^2+ flux): 0.028 µM

C[C@@H]1NC(=O)[C@H](Cc2ccccc2)NC(=O)[C@H](CCC(N)=O)NC(=O)[C@H](NC(=O)[C@@H]2CCCN2C(=O)[C@H](Cc2ccccc2)NC(=O)[C@H](Cc2ccc(O)cc2)NC(=O)CCOCCOCCOCCOCCNC(=O)c2ccc3c(c2)C2(OC3=O)c3ccc(N(C)C)cc3Oc3cc(N(C)C)ccc32)CCSSC[C@@H](C(=O)O)NC(=O)[C@H](Cc2ccccc2)NC1=O [Compound 12T, Tam-EG(4)-YFP(xQFAFC)] ({X1-PEG4}-YFP[d(hCys)]QFAFC-OH; disulfide 4-9)
intracellular Tam-fluorescence (peptide uptake) [2]: pronounced intracellular fluorescence is visible after 60 min of stimulation
half-life [1]: > 48 h
intracellular accumulation of Tam-fluorescence over time [3]: comparable intracellular accumulation over time

Mtx-GFLGK(Ac)YFP(xQFAFC) [Compound 15]
toxicity (in words) [4]: exerted no toxicity; also recorded: not toxic at concentrations up to 10 µM
increase in toxicity compared to MTX itself [5]: almost eightfold increase in toxicity

Tam-EG(4)-YFP(xQFAFC)
not cleaved (human blood plasma): not degraded in blood plasma for at least 24 h; t1/2 >48 h

Tam-EG(4)-YFPGQFAAS ({Tam-EG(4)}-YFPGQFAAS) [Compound 13T, alanine-substituted Tam-labeled linear peptide, negative control]
intracellular accumulation of Tam-fluorescence over time [3]: did not accumulate in the cells

Tam-YFP(c(CH2)QFAFC)
not cleaved (human blood plasma): same stability for 24 h; t1/2 >24 h

Tam-YFP(c(CH2)QFAFX)
not cleaved (human blood plasma): same stability for 24 h; t1/2 >24 h

Tam-YFP(cQFAFC) (X1-YFP[dC]QFAFC-OH; disulfide 4-9)
not cleaved (human blood plasma): remained completely intact for the course of the experiment (24 h); t1/2 >24 h

methotrexate conjugate 15, Mtx-GFLGK(Ac)YFP(xQFAFC) (peptide)
toxicity in a resazurin-based cell viability assay, HEK293 cells stably transfected with CMKLR1-eYFP, 72 h, IC50 (no toxicity on HEK293 cells devoid of CMKLR1 up to 10 µM) [6]: 0.061 µM
toxicity in a resazurin-based cell viability assay, HMEC-1 cells endogenously expressing CMKLR1, 72 h, IC50 [7]: 2 µM

yFP(cQFK(Tam)FC)
not cleaved (human blood plasma): fully stable in blood plasma for 24 h; t1/2 >24 h
